Measured values as given in US20120058172A1, “PLANT EXTRACTS FOR USE IN BRAIN MODULATION” (Intermed Discovery GmbH, priority 2006, published 2012).

Test system: mouse
Assay: Marble burying test in the mouse
Type: in vivo
Settings: for Number of marbles covered by sawdust, mean ± s.e.m.: 15 mice per group
Excerpt: More preferably, psychotropic activity can be tested using the Marble Burying Test in the mouse. The method, which detects anxiolytic/tranquillizing activity, follows that described by Broekkamp et al (Eur. J. Pharmacol., 126, 223-229, 1986). The principle of the test is that mice exposed to novel objects (marbles) will bury them in the sawdust floor covering. Anxiolytics decrease the number of marbles buried at non-sedative doses. For the experiment, mice (Male Rj: NMRI mice, weighing 20-30 g (max. range per experiment=5 g) at the beginning of the experiments, obtained from Elevage Janvier, 53940 Le Genest-Saint-Isle, France) are individually placed in transparent plastic cages (33×21×18 cm) with 5 cm of sawdust on the floor. 25 marbles are grouped in the centre of the cage. The cage is covered with an inverted plastic cage. Each test cage, together with the marbles, is impregnated with mouse odor before-hand by leaving 10 mice in the cage for 15 minutes. These mice then play no further role in the experiment. The mice are treated with test substance intraperitoneally (i.p.) 30 min before the test. Administration volume: 10 ml/kg, different dosages are tested (e.g. 2 or more dosages selected from 1, 3, 10, 30 and 100 mg/kg). The test substance is tested for solubility by cold stirring of the highest intended dose for 10 minutes in physiological saline. If soluble, physiological saline serves as vehicle. If insoluble, the test substance is homogenized and dispersed using a mortar and a pestle in 0.2% hydroxypropylmethylcellulose (HPMC) in physiological saline which then serves as the vehicle. Unless indicated otherwise, doses are prepared W/V (stock) and then V/V (serial dilutions) for test substances in solution, and by separate weighings (W/V) for test substances in suspension. Preparations are made freshly for each day of administration and precautions are taken to preserve the homogeneity of suspensions (if applicable) during the period of administration. As control, vehicle is administered. The number of marbles covered by sawdust (2/3 or more) is then counted at the end of a 30 minute test. 15 mice are studied per group. The test is performed blind. Each test substance is evaluated at 3 doses, administered i.p. 30 minutes before the test, and compared with a vehicle control group. Fluoxetine (32 mg/kg i.p.), administered under the same experimental conditions, is used as reference substance. Each experiment therefore includes 5 groups. Data are analyzed by comparing treated groups with vehicle control using unpaired Student's t tests, using commercial software (Microsoft Excel®, SAS® Version 8.2, GB Stat® Version 6.5). With this test system, with compounds of the formula I a decrease of the number of marbles buried and thus an anxiolytic effect can be found, preferably a significant effect (p<0.01) by an i.p. dosage in the range from 1 to 100 mg/kg.
The test is performed as described above.

Row | Structure (SMILES) | Number of marbles covered by sawdust, % change from control (Vehicle) (32 mg/kg i.p. −30 min) [%] | Number of marbles covered by sawdust, mean ± s.e.m. (32 mg/kg i.p. −30 min) | Number of marbles covered by sawdust, % change from control (Vehicle) (1 mg/kg i.p. −30 min) [%] | Number of marbles covered by sawdust, mean ± s.e.m. (1 mg/kg i.p. −30 min) [NS] | Number of marbles covered by sawdust, % change from control (Vehicle) (3 mg/kg i.p. −30 min) [%] | Number of marbles covered by sawdust, mean ± s.e.m. (3 mg/kg i.p. −30 min) [NS] | Number of marbles covered by sawdust, % change from control (Vehicle) (10 mg/kg i.p. −30 min) [%] | Number of marbles covered by sawdust, mean ± s.e.m. (10 mg/kg i.p. −30 min)
1 | CNCCC(Oc1ccc(C(F)(F)F)cc1)c1ccccc1 (centres unmarked) [FLUOXETINE, Fluoxetine, reference compound] | −100 | 0.0 ± 0.0 | – | – | – | – | – | –
2 | CC(C)C[C@@H](c1c(O)c(C=O)c(O)c(C=O)c1O)[C@@]1(C)CC[C@@H]2[C@@H]1[C@H]1[C@@H](CC[C@@]2(C)O)C1(C)C [Macrocarpale A, Macrocarpal A] | – | – | −5 | 15.7 ± 2.5 | −37 | 10.4 ± 2.3 | −53 | 7.7 ± 2.4
